# Earlier results, collected in paper PMC8542980, “The Scavenger Function of Liver Sinusoidal Endothelial Cells in Health and Disease” (Frontiers in Physiology, 2021).
# Where two headings read alike, the source gives them in different places.
# B1: ^125I-TC-nidogen: nidogen labeled with 125I-tyramine cellobiose (protein, UniProt P14543 29-1247, looked up)
# Nidogen-1: LSRQELFPFGPGQGDLELEDGDDFVSPALELSGALRFYDRSDIDAVYVTTNGIIATSEPPAKESHPGLFPPTFGAVAPFLADLDTTDGLGKVYYREDLSPSITQRAAECVHRGFPEISFQPSSAVVVTWESVAPYQGPSRDPDQKGKRNTFQAVLASSDSSSYAIFLYPEDGLQFHTTFSKKENNQVPAVVAFSQGSVGFLWKSNGAYNIFANDRESVENLAKSSNSGQQGVWVFEIGSPATTNGVVPADVILGTEDGAEYDDEDEDYDLATTRLGLEDVGTTPFSYKALRRGGADTYSVPSVLSPRRAATERPLGPPTERTRSFQLAVETFHQQHPQVIDVDEVEETGVVFSYNTDSRQTCANNRHQCSVHAECRDYATGFCCSCVAGYTGNGRQCVAEGSPQRVNGKVKGRIFVGSSQVPIVFENTDLHSYVVMNHGRSYTAISTIPETVGYSLLPLAPVGGIIGWMFAVEQDGFKNGFSITGGEFTRQAEVTFVGHPGNLVIKQRFSGIDEHGHLTIDTELEGRVPQIPFGSSVHIEPYTELYHYSTSVITSSSTREYTVTEPERDGASPSRIYTYQWRQTITFQECVHDDSRPALPSTQQLSVDSVFVLYNQEEKILRYALSNSIGPVREGSPDALQNPCYIGTHGCDTNAACRPGPRTQFTCECSIGFRGDGRTCYDIDECSEQPSVCGSHTICNNHPGTFRCECVEGYQFSDEGTCVAVVDQRPINYCETGLHNCDIPQRAQCIYTGGSSYTCSCLPGFSGDGQACQDVDECQPSRCHPDAFCYNTPGSFTCQCKPGYQGDGFRCVPGEVEKTRCQHEREHILGAAGATDPQRPIPPGLFVPECDAHGHYAPTQCHGSTGYCWCVDRDGREVEGTRTRPGMTPPCLSTVAPPIHQGPAVPTAVIPLPPGTHLLFAQTGKIERLPLEGNTMRKTEAKAFLHVPAKVIIGLAFDCVDKMVYWTDITEPSIGRASLHGGEPTTIIRQDLGSPEGIAVDHLGRNIFWTDSNLDRIEVAKLDGTQRRVLFETDLVNPRGIVTDSVRGNLYWTDWNRDNPKIETSYMDGTNRRILVQDDLGLPNGLTFDAFSSQLCWVDAGTNRAECLNPSQPSRRKALEGLQYPFAVTSYGKNLYFTDWKMNSVVALDLAISKETDAFQPHKQTRLYGITTALSQCPQGHNYCSVNNGGCTHLCLATPGSRTCRCPDNTLGVDCIEQK
# modifications: 125I-tyramine cellobiose label
# notes: nidogen labeled with 125I-tyramine cellobiose
# Tests used:
# [1] = system: endocytic hyaluronan receptor
# [2] = parameters: method as in Fraser et al., 1984; conditions: human, ref Fraser et al., 1984
# [3] = parameters: method as in Fraser et al., 1981; conditions: rabbit, ref Fraser et al., 1981
# [4] = ref Smedsrød et al., 1984, Laurent et al., 1986b
# [5] = rat, 1 μg, tail vein, ref Smedsrød and Einarsson, 1990
# [6] = rats, whole body autoradiography 10 min after injection, ref Fraser et al., 1985
molecule,measurement,setting,value
hyaluronan,uptake in liver,"rat, at 30 min after injection, ref Dahl et al., 1988",79%
same,"Decay of plasma/blood radioactivity, t1/2α","rat, tail vein, MW = 2.5 × 10^5, ref Dahl et al., 1988",0.9 min
heparin [listing 1 of 2 here],affinity of the rat receptor,[1]; [4],no affinity
Dextran sulfate,inhibition of the binding of hyaluronan by LSECs,"[1]; ref Raja et al., 1988, McGary et al., 1989",can also inhibit
^125I-tPA: 125I-labeled tissue plasminogen activator,% eliminated with t1/2α,[5],65%
same,% eliminated with t1/2β,[5],35%
same,"Decay of plasma/blood radioactivity, t1/2α",[5],0.6 min
same,"Decay of plasma/blood radioactivity, t1/2β",[5],6.4 min
C[C@@H]1C[C@@H]([C@H](O)CC2CC(=O)NC(=O)C2)C(=O)[C@@H](C)C1 [cycloheximide],effect on the endocytosis of hyaluronan by cultured LSECs,"LSECs; inhibitor of protein synthesis, ref McGary et al., 1989",no effect
heparan sulfate,affinity of the rat receptor,[1]; [4],no affinity
hyaluronan [[^3H]-hyaluronan],injected radioactivity found in Kupffer cells,[6],none
same,injected radioactivity found in the cytoplasm of LSECs,[6],approximately 90%
same,"Decay of plasma/blood radioactivity, t1/2","[2]; 60–130 μg, cubital vein",2.6 to 5.5 min
same,eliminated from blood,[2]; after 10 min,90%
same,time to appearance of degradation products in the supernatant,"LSECs; LSEC cultures, 37°C, after addition of ligand, ref Smedsrød et al. (1984)",≤ 30 min
same,time to steady state levels of internalized ligand and degradation products,"LSECs; LSEC cultures, 37°C, into the incubation, ref Smedsrød et al. (1984)",60 to 75 min
same,"Decay of plasma/blood radioactivity, t1/2","[3]; 30–32 μg, marginal ear vein",2.5 to 4.5 min
same,uptake in liver,[3]; at 19 min after injection,88%
chondroitin sulfate,inhibition of the uptake and binding of hyaluronan by LSECs,"[1]; ref Smedsrød et al., 1984",can inhibit
same,affinity of the rat receptor compared with hyaluronan of the same chain length,[1]; [4],threefold greater affinity
heparin [listing 2 of 2 here],"Decay of plasma/blood radioactivity, t1/2","rat, 0.1 IU/kg, tail vein, ref Øie et al., 2008",1.71 min
same,recovered in liver,"rat, after 15 min, ref Øie et al., 2008",71%
chondroitin sulfate [[^3H]-chondroitin sulfate (CS)],site of main uptake,"rat, clearance rate not examined, ref Smedsrød et al., 1985b",Clearance rate not examined but the main uptake was in LSECs
hyaluronan [hyaluronan of 6.4 × 10^6 Da],Kd,"[1]; endocytic hyaluronan receptor of LSECs, ref Laurent et al., 1986b, read-out: dissociation constant",9 pM
B1,recovered in liver,"rat, after 1 h, ref Smedsrød et al., 1989",78%
same,"Decay of plasma/blood radioactivity, t1/2","rat, trace amounts, tail vein, ref Smedsrød et al., 1989",2 to 3 min
